Laboratory results as given in ChEMBL document CHEMBL1201862, “PubChem BioAssay data set” (2004).
Calls of active or inactive are those of the source.

Tests used:
Cytochrome P450 2C19 = Cytochrome P450 2C19 (Homo sapiens, UniProt P33261); test: qHTS Assay for Inhibitors and Substrates of Cytochrome P450 2C19. [Related pubchem assays: 410 ]; assay type: ADME; conditions: read-out: Potency
[1] = Late stage counterscreen results from the probe development effort to identify activators of signal transducer and activator of transcription 1 (STAT1): luminescence-based cell-based dose response assay to identify cytotoxic compounds.; assay type: functional
[2] = general cell-killing toxicity readout – plate reader, dry powder samples, cytotoxicity control for PAX8 inhibitor project, dose response (AID 743021); assay type: functional, cell-based
Paired box protein Pax-8 = Paired box protein Pax-8 (Homo sapiens, UniProt Q06710); test: PAX8 transcriptional activity inhibition in RMG-I – RMG-I cells, luciferase, cherry-pick, dose response (AID 687027); assay type: functional, cell-based;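 note: luciferase reporter driven by Pax8 target thyroperoxidase promoter measured by SteadyGlo luminescence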
Ephrin type-A receptor 4 = Ephrin type-A receptor 4 (Mus musculus, UniProt Q03137); test: EphA4 ligand-binding antagonists – biochemical, colorimetric, mouse EphA4, primary screen (AID 689); assay type: functional
Bcl-2-related protein A1 [3] = biological target: T1, Bcl-2-related protein A1 (Mus musculus, UniProt Q07440); test: small-molecule antagonists of Bfl-1/BH3 interaction – biochemical, TR-FRET, mouse Bfl-1, confirmation (AID 621);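 note: TR-FRET binding of GST-Bfl-1 to FITC-labelled Bid peptide via terbium antibody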
T1 sequence (Q07440 whole entry): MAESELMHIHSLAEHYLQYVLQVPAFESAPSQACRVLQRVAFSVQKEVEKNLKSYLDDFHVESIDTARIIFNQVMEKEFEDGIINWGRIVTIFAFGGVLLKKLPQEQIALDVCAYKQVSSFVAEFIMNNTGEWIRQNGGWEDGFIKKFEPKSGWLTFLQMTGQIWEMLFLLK

[4] = biological target: T2, Zinc finger protein mex-5 (Caenorhabditis elegans, UniProt Q9XUB2); test: potency of MEX-5 RNA-binding blockers – biochemical, C. elegans, fluorescence polarization, dose response (AID 1960)
T2 sequence (Q9XUB2 whole entry): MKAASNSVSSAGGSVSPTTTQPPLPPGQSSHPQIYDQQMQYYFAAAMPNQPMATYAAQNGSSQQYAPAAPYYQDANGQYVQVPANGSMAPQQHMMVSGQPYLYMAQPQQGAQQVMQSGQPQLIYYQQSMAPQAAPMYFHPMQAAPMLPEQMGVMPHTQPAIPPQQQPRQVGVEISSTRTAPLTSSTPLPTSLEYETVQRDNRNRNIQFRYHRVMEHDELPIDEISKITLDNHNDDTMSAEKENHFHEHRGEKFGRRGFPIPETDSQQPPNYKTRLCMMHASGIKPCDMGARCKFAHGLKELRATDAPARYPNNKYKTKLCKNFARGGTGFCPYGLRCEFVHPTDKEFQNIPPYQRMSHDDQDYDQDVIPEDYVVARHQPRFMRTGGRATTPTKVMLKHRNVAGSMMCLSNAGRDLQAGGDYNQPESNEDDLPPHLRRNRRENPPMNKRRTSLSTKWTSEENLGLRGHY

Bcl-2-related protein A1 [5] = biological target: T1, Bcl-2-related protein A1; test: displacement of Bid BH3 peptide from Bfl-1 – biochemical, fluorescence polarization, FITC-Bid, mouse, primary screen (AID 432)
[6] = biological target: G-protein coupled receptor 35 (Homo sapiens, UniProt Q9HC97); test: inhibition of zaprinast-stimulated GPR35 beta-arrestin translocation – imaging, U2OS, beta-arrestin-GFP, zaprinast agonist, primary screen (AID 2058); assay type: functional;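 note: antagonist potency meaning inhibition of agonist-induced arrestin redistribution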
[7] = biological target: T3, RNA-binding protein pos-1 (Caenorhabditis elegans, UniProt G5EF15); test: disruptors of C. elegans POS-1 RNA interaction – biochemical, fluorescence polarization, dose response (AID 1964);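 note: purified POS-1 fused to maltose binding protein made in E. coli; potency of compounds blocking POS-1 binding to fluorescent RNA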
T3 sequence (G5EF15 whole entry): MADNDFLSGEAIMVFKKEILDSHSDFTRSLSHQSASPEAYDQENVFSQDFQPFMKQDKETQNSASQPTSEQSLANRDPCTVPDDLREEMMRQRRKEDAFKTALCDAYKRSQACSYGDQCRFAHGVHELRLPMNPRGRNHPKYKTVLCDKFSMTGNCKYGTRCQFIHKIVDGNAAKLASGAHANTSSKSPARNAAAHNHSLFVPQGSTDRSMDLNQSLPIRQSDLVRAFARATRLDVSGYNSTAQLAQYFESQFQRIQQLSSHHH

[8] = biological target: T4, Heat shock factor protein 1 (Mus musculus, UniProt P38532); test: enhancement of HSF1-driven luciferase signal – cell-based, NIH3T3, luminescence, dose retest, confirmation (AID 435004); assay type: functional;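 note: stress induced by proteasome inhibitor MG132 added 30 min after compound; luciferase reporter driven by HSF1 response element in NIH3T3 cells; actives raise luminescence as potentiators of the MG132 stress response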
T4 sequence (P38532 whole entry): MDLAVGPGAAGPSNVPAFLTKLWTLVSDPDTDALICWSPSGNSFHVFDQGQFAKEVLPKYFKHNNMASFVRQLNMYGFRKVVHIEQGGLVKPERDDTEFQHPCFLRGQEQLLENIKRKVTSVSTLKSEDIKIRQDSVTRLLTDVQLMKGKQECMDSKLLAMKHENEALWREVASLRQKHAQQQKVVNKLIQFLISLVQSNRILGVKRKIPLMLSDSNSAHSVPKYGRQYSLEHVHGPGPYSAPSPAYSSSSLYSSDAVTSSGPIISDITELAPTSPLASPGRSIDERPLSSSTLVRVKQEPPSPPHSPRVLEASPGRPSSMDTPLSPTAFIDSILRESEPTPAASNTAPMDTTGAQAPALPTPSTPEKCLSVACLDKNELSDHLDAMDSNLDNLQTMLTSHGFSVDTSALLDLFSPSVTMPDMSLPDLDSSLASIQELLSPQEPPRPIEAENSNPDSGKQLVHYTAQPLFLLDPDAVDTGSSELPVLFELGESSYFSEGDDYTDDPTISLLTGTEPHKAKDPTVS

[9] = biological target: Photoreceptor-specific nuclear receptor (Homo sapiens, UniProt Q9Y5X4); test: ligands suppressing NR2E3 nuclear receptor activity – biochemical, TR-FRET, dose response (AID 463256); assay type: functional
[10] = biological target: Peroxisome proliferator-activated receptor gamma/Nuclear receptor coactivator 3 (Homo sapiens, UniProt P37231); test: TR-FRET dose response biochemical High Throughput Screening assay for agonists of the steroid receptor coactivator 3 (SRC-3) recruitment by the peroxisome proliferator-activated receptor gamma (PPAR gamma): non-selective agonists. [Related pubchem assays: 1301 (Confirmation screen.), 1048 (Primary screen.)]; assay type: functional
[11] = biological target: Peroxisome proliferator-activated receptor gamma/Nuclear receptor coactivator 2 (Homo sapiens, UniProt P37231); test: (§1) TR-FRET dose response biochemical High Throughput Screening assay for agonists of the steroid receptor coactivator 2 (SRC-2) recruitment by the peroxisome proliferator-activated receptor gamma (PPAR gamma): non-selective agonists. [Related pubchem assays: 1297, 1032 ]; assay type: functional
[12] = biological target: Peroxisome proliferator-activated receptor gamma/Nuclear receptor corepressor 2 (Homo sapiens, UniProt P37231+Q9Y618); test: Counterscreen for NR2E3 inverse agonists: TR-FRET-based biochemical high throughput dose response assay to identify inverse agonists of the interaction between peroxisome proliferator-activated receptor gamma (PPARg) and nuclear receptor co-repressor 2 (NCOR2).; assay type: functional
[13] = biological target: Peroxisome proliferator-activated receptor gamma/Nuclear receptor coactivator 1 (Homo sapiens, UniProt P37231); test: as §1, with “1 (SRC-1)” for “2 (SRC-2)”, “assays (depositor defined):AID1300, AID1808, AID504735, AID631]” for “assays: 1297, 1032 ]”; assay type: protein assay
[14] = biological target: T5, Rac GTPase-activating protein 1 (Homo sapiens, UniProt Q9H0H5); test: blockers of MgcRacGAP-driven Rac1 GTP hydrolysis – biochemical, ADP Hunter fluorescence, primary and confirmatory, confirmation (AID 624330); assay type: functional
T5 sequence (Q9H0H5 whole entry): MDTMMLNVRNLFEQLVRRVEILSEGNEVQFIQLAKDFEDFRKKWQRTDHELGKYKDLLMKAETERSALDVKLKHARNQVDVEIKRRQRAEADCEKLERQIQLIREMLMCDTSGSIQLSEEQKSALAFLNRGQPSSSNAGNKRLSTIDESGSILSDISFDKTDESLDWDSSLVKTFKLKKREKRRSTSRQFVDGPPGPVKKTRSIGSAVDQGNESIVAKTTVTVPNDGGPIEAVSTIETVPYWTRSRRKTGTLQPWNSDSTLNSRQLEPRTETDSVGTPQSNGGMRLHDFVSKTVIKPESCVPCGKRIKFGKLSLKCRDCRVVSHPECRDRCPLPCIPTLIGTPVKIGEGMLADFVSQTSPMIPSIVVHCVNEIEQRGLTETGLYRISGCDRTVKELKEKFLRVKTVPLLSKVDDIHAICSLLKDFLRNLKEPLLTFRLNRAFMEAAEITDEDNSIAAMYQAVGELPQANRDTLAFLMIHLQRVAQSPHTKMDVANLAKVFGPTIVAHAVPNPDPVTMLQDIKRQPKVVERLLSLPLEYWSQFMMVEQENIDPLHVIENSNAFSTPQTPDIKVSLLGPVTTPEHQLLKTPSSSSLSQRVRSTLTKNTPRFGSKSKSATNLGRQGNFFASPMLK

[15] = biological target: FAD-linked sulfhydryl oxidase ALR (Homo sapiens, UniProt P55789); test: ALR-catalysed DTT oxidation blockers – biochemical, H2O2 detection, luminescence, cherry-pick, dose response (AID 493248)
Leucine aminopeptidase = biological target: T6, Leucine aminopeptidase (Plasmodium falciparum 3D7, UniProt Q8IL11); test: P. falciparum M17LAP inhibitors, primary screen, biochemical, fluorogenic H-Leu-NHMec substrate, 1536-well (AID 1619); assay type: functional
T6 sequence (Q8IL11 whole entry): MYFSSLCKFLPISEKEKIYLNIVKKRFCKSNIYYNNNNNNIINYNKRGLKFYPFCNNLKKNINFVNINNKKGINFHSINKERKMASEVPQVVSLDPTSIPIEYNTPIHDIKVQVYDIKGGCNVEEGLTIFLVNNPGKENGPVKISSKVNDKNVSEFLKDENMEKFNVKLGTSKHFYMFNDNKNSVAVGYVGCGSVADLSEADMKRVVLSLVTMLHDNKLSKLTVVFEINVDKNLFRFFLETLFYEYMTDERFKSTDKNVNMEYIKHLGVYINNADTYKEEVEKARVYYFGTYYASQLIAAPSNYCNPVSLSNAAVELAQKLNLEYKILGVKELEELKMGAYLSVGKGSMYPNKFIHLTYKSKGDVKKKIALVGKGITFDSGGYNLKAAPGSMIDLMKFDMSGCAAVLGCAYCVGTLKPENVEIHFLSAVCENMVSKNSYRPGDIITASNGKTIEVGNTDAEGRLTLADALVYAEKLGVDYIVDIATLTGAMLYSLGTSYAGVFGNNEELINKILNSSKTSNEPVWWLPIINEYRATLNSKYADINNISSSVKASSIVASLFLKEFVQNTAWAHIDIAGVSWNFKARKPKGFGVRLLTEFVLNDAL

Large T antigen = Large T antigen (Simian virus 40, UniProt P03070); assay type: functional, Betapolyomavirus macacae;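 note: Confirmatory-stage PubChem screen for compounds that inhibit SV40 T antigen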
Heat shock protein HSP90 = Heat shock protein HSP90 (Homo sapiens, UniProt P07900+P08238); test: Hsp90 blockade concentration-response – dose response (AID 712); assay type: functional
[16] = Luminescent dose response cell-based high throughput screening assay for inhibitors of the Janus kinase 2 mutant JAK2V617F. [Related pubchem assays: 1446 (Primary screen.), 1521 (Confirmation assay.), 1486 (Counter screen.)]; assay type: functional
[17] = luciferase reporter signal suppression in cells – H4 neuroglioma cells, luminescence, dose response (AID 1990); assay type: functional, cell-based
[18] = Luminescence Cell-Based Dose Response HTS to Identify Inhibitors of 5'UTR Stem-Loop Driven Prion Protein mRNA Translation in H4 Neuroglioblastoma Cells. [Related pubchem assays: 1827 (Project Summary), 1813 (Primary HTS)]; assay type: functional
Cytochrome P450 3A4 = Cytochrome P450 3A4 (Homo sapiens, UniProt P08684);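 note: CYP3A4 tested as one member of a cytochrome P450 panel screen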
Danio rerio = test: In Vivo Angiogenesis Dose-Response Confirmation. [Related pubchem assays: 732 (Assay preceding this confirmatory assay.)]; assay type: functional, organism-based

Chain of G-protein coupled receptor 35 (Q9HC97 whole entry, the tested form may be a part): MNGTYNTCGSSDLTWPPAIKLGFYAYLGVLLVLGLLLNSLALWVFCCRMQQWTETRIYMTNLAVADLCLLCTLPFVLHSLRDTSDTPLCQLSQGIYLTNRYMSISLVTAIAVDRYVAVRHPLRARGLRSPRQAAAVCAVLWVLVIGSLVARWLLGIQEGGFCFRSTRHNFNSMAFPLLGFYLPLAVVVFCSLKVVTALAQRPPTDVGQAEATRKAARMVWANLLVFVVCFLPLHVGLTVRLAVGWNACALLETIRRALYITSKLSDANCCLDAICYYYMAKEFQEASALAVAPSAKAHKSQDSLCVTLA
Chain of Ephrin type-A receptor 4 (Q03137 whole entry): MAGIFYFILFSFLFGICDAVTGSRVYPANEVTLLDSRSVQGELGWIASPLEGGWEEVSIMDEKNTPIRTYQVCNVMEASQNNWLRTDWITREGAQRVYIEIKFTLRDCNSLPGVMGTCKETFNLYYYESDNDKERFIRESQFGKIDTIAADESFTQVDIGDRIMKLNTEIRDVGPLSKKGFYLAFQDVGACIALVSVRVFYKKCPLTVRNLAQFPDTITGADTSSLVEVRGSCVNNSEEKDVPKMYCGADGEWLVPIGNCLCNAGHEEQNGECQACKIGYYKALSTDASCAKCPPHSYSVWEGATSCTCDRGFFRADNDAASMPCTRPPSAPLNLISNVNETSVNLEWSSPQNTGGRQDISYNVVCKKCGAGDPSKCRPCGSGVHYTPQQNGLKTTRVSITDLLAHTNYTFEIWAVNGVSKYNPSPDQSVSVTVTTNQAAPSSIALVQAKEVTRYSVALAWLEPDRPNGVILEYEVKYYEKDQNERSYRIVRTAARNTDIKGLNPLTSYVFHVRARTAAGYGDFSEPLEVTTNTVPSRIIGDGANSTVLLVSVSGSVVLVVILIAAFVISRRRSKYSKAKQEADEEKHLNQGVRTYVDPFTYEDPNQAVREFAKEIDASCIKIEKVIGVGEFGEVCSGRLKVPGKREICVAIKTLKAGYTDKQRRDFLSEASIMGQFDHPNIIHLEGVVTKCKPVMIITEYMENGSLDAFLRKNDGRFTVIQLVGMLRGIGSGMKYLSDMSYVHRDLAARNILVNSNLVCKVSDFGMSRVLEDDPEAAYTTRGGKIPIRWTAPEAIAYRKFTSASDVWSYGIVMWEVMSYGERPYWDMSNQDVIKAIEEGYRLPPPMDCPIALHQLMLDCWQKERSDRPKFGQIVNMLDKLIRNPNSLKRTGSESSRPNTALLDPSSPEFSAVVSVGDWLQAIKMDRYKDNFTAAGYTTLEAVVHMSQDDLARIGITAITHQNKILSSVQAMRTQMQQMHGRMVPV
Chain of Peroxisome proliferator-activated receptor gamma/Nuclear receptor coactivator 2 (P37231 whole entry): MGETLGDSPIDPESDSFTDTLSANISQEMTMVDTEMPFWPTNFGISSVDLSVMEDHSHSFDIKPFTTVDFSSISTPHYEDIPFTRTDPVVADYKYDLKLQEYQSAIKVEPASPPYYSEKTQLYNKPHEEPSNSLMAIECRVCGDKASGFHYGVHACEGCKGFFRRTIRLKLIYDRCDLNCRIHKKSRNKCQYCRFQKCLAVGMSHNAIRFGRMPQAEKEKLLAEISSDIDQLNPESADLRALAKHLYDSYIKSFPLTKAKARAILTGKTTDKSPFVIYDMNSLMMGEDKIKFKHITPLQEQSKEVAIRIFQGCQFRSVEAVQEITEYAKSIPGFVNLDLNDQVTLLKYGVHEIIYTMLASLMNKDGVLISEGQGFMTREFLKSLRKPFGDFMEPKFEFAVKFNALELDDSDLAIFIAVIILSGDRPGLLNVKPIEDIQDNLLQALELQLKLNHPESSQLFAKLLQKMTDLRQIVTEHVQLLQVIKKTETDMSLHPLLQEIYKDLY
Chain of Peroxisome proliferator-activated receptor gamma/Nuclear receptor coactivator 2 (Q15596 whole entry, further chain): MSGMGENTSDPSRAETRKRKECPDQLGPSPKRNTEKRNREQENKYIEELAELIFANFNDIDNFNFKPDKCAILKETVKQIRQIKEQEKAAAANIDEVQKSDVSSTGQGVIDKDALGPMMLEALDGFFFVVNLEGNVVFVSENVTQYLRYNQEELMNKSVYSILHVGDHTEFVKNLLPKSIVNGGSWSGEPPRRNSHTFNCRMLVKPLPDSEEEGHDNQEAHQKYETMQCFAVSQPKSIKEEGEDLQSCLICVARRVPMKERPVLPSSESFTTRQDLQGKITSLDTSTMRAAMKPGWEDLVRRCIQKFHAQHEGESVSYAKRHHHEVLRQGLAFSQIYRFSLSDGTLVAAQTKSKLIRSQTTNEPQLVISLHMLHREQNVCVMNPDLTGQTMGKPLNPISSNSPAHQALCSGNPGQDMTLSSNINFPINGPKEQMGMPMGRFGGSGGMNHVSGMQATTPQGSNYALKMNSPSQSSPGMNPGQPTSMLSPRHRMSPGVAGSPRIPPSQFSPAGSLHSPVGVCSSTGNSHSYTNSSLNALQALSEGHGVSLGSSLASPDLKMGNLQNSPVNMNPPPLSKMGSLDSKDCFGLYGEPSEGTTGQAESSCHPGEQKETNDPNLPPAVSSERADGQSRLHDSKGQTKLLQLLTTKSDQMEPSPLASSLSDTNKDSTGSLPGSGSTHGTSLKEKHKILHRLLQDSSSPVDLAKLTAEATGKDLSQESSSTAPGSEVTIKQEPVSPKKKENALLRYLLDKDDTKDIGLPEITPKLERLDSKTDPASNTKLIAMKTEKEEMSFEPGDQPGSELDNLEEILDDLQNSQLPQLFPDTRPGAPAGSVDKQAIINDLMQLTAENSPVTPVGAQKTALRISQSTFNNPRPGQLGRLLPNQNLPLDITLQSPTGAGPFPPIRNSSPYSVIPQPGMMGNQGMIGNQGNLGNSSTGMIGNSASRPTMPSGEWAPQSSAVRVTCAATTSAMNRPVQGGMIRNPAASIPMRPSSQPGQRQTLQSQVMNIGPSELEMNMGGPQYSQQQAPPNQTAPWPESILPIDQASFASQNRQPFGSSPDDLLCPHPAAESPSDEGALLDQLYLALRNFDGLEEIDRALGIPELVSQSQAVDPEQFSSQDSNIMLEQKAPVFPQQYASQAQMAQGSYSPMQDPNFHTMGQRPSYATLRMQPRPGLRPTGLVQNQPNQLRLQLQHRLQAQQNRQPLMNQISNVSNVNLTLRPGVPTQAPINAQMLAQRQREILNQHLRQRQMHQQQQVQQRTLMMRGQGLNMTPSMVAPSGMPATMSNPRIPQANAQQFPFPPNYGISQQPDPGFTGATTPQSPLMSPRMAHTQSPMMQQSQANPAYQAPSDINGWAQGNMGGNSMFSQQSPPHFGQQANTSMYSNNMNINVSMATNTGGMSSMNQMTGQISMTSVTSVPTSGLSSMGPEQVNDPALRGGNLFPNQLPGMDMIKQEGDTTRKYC
Chain of Cytochrome P450 2C19 (P33261 whole entry): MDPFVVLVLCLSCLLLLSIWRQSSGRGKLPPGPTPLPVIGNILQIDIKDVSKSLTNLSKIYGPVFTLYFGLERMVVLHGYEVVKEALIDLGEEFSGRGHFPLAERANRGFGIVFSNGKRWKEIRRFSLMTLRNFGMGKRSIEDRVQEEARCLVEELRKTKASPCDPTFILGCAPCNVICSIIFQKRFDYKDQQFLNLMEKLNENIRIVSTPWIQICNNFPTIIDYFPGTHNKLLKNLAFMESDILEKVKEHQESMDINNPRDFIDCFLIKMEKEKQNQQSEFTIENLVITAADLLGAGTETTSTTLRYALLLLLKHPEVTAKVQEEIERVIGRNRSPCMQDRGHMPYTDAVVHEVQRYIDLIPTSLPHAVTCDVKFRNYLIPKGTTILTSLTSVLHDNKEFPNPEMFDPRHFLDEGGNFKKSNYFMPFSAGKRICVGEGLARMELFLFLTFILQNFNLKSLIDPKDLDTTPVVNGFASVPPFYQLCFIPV
Chain of Paired box protein Pax-8 (Q06710 whole entry): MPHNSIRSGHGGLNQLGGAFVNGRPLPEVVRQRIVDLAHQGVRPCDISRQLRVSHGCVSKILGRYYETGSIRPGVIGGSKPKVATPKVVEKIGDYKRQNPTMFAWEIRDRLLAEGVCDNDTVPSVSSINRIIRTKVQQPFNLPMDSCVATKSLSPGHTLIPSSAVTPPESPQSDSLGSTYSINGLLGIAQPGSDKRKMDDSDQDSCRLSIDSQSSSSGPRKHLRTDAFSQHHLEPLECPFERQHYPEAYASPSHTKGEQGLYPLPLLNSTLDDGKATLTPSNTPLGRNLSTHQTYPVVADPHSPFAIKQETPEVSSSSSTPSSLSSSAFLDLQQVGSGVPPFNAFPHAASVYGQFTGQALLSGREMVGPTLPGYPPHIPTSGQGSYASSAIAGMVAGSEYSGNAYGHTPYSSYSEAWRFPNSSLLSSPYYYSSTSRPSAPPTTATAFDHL
Chain of FAD-linked sulfhydryl oxidase ALR (P55789 whole entry): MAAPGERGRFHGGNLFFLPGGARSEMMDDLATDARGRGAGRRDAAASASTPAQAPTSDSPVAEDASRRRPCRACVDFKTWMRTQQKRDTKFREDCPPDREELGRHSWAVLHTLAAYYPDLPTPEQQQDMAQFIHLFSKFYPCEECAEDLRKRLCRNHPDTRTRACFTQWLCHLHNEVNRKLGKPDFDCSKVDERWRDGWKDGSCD
Chain of Photoreceptor-specific nuclear receptor (Q9Y5X4 whole entry): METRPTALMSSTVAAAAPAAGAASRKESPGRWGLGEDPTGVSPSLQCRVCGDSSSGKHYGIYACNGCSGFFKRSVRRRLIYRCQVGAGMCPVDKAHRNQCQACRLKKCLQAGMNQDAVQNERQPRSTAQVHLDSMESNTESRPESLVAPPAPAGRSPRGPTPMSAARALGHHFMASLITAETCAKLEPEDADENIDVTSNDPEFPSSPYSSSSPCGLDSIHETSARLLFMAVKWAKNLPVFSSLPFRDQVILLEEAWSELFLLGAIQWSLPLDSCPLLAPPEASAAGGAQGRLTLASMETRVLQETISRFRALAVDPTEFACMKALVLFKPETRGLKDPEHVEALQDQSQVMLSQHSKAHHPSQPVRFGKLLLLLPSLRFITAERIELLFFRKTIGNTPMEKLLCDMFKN

SMILES: COc1cc2oc(-c3ccccc3)cc(=O)c2cc1OC
- AC50 (Cytochrome P450 2C19): 31.6 µM (inconclusive)

SMILES: Cc1ccc(C(=O)Nc2nc3ccccc3s2)s1
- IC50 [1]: > 55.7 µM (not active)

SMILES: FC(F)(F)c1nnc2c(Sc3ccccn3)nc3ccccc3n12
- AC50 [2]: 55.5 µM (active)
- AC50 (Paired box protein Pax-8): 7.08 µM (active)
- IC50 (Ephrin type-A receptor 4): > 100 µM (not active)

SMILES: CN1CC=C2C(C#N)=C(N)C(C#N)(C#N)C(c3cccc(Cl)c3Cl)C2C1 (stereo unspecified)
- IC50 (Bcl-2-related protein A1 [3]): > 100 µM (not active)
- EC50 [4]: 13.5 µM (active)
- IC50 (Bcl-2-related protein A1 [5]): > 100 µM (not active)
- IC50 [6]: 12 µM (inactive)
- EC50 [7]: 14.4 µM (active)
- EC50 [8]: > 260 µM (inactive)

SMILES: Cc1ccc(S(=O)(=O)Nc2cnn(-c3ccccc3)c(=O)c2Cl)cc1
- IC50 [9]: > 39.8 µM (not active)
- EC50 [10]: > 79.4 µM (not active)
- EC50 [11]: 19.2 µM (not active)
- IC50 [12]: > 39.8 µM (not active)
- EC50 [13]: > 79.4 µM (inactive)

SMILES: CCCc1nc2ccccc2c(=O)n1/N=C/c1ccc(O)c(O)c1
- IC50 [14]: 38.8 µM (active)
- AC50 [15]: 0.577 µM (active)
- IC50 (Leucine aminopeptidase): 24.2 µM (active)
- IC50 (Large T antigen): 10.5 µM (active)
- IC50 (Heat shock protein HSP90): 17.5816 µM
- IC50 [16]: 2.18 µM (active)

SMILES: NC(=O)c1cc(N2CC2)c([N+](=O)[O-])cc1[N+](=O)[O-] [TRETAZICAR]
- EC50 [17]: > 120 µM (not active)
- EC50 [18]: > 120 µM (not active)
- AC50 (Cytochrome P450 3A4): 39.8 µM (inconclusive)
- IC50 (Danio rerio): 1.2 µM (not active)
